Columns and labels:
CD4+ T cells from PBMC = assay: IFN-γ ELISpot, PBMC-derived in vitro expanded CD4+ T cell lines; type: cell-based, human; design: key to T cell recognition by PBMC from a T1D donor (mark E) / T cell recognition by PBMC from a T1D donor: E: T cell recognition by PBMC from a T1D donor was tested and verified; see Figure 5; settings: for T cell recognition by PBMC from a T1D donor (mark E): tested and verified, see Figure 5; for T1D Donor T cell response / non-T1D Donor T cell response: PBMC T cell lines, responding donors/donors tested; for IFN-γ ELISpot response of expanded CD4 T cells: control donor LSLP-153, line expanded with megapool HPAP-DR3 + SEC-DR3, tested with individual peptides (Figure S5C)
[1] = system: islet-derived T cell lines; assay: Cytokine bead array (IFN-γ, TNF-α, IL-10), combined islet-derived T cell lines from donors with T1D
Experimental: Live pancreas slices (150–200 μm thick) were provided by nPOD. […] Ten slices were digested with 1 mg/mL collagenase-P (Sigma) in PBS at 37°C with shaking with a magnetic stir bar, with tissue dispersal visually monitored. After washing, islets were enriched by hand-picking, and single-islet-derived T-cell lines generated as described[51] with modifications. Single islets were plated in wells of 96 well round bottom plates (CoStar) on irradiated (5000 rads) allogeneic PBMC with AIM-V media (Thermo Fisher Scientific) supplemented with 2 mM L-glutamine, 5 mM HEPES, and 100 U/ml penicillin and 100 μg/mL streptomycin, 0.1 mM each non-essential amino acids, 1 mM sodium pyruvate, and 5% heat-inactivated human male AB serum (Grifols Diagnostic) with 5 μg/mL each of anti-CD3, anti-CD28 (BioLegend), anti-PD-1 (ligand blocking clone EH12.1, BD Biosciences) and anti-Fas (clone SM1/23: Thermo Fisher Scientific) with 20 U/ml IL-2, and 10 ng/mL IL-15 (R&D), and 50 nM mifepristone (Thermo Fisher Scientific). The lymphocytic outgrowth from individual islets was collected, re-plated, allowed to expand with IL-2 and IL-15, and cryopreserved in early passage (P1-P3). For these experiments, 7–10 T cell lines derived from single islets from each donor were combined. Each combined T cell line contained either >60% CD4 or CD8 T cells. For some experiments in order to enriched for any reactive T cells, combined islet-derived T cell lines were stimulated with individual peptides pools with the inclusion of 5 μg/mL soluble anti-CD28 (BD Biosciences), fed with 20 U/mL recombinant IL-2 (Proleukin) and recombinant 10 ng/mL IL-15 (R&D Systems) on Day 1, allowed to rest for 4–6 days, and then re-tested for reactivity to that peptide pool.
For islet-derived combined T cellana lines, either irradiated A*02:01-Hmy.2B-LCL or DRB1*03:01-expressing QBL B-LCL (Millipore Sigma) were pulsed for 2 h with indicated pools of peptides (each peptide at 2.5 μg/mL), washed and then co-cultured at 2x10^4/cells well with combined T cell lines at 5x10^4/cell in 96-well round bottom plates (CoStar) in 5%, heat-inactivated 5% human male AB serum (Grifols Diagnostic) in AimV (ThermoFisher) supplemented with 10 mM HEPES buffer, 2 mM L-glutamine, and 100 U/100 μg/ml penicillin/streptomycin (ThermoFisher) and 2.5 μg/mL soluble anti-CD28 (BD BioSciences). On Day 1, 20 U/mL recombinant IL-2 (Proleukin) and recombinant and 10 ng/mL IL-15 (R&D Systems) was added to all conditions.

CD8+ T cells from PBMC = assay: IFN-γ ELISpot, PBMC-derived in vitro expanded CD8+ T cell lines; type: cell-based, human; settings: SEC (Secretory) A2 Peptides Set; PBMC T cell lines; responding donors/donors tested
[2] = SEC (Secretory) DR3 Peptides Set
[3] = donor 6551, cytokine bead array, 48 h (Figures 6A–6C)
[4] = PTM and unmodified native Pool Peptides (pool PTM 1), long peptides

For QDPELPDKNMFTINRNTGVIS, the “T cell recognition by PBMC from a T1D donor (mark E)” value (shortened to “T cell recognition … (mark E)”) (CD4+ T cells from PBMC; MHC-II peptides) was “QDPELPDKNM FTINRNTGV IS ^ E”.

QDPELPDKNMFTINRNTGVIS [compound 29] was tested, and the “T1D Donor T cell response” value (CD4+ T cells from PBMC; DR3/DQ Set Peptides) was 2/4 and the “non-T1D Donor T cell response” value (CD4+ T cells from PBMC; DR3/DQ Set Peptides) was 0/2.

In the case of QSIEGGAHEGLQHLGP, the “T cell recognition by PBMC from a T1D donor” value (CD4+ T cells from PBMC; MHC-II peptides, superscript E on the peptide, G = verified with QBL cells) is reported as “QS IEGGAHEGL QHLGP ^ E”.

For “RPLNEQIAEAEEED [compound 187, secretory hormone eluted peptide from SCG3, pool SEC DR3]”, the “T1D Donor T cell response” value (CD4+ T cells from PBMC; [2]) was 0/4, the “non-T1D Donor T cell response” value (CD4+ T cells from PBMC; [2]) was 1/4 and the “IFN-γ ELISpot response of expanded CD4 T cells” value (CD4+ T cells from PBMC) was “IFN-γ responses”.

With RQRYEILTPNSIPK the “T cell recognition … (mark E)” value (CD4+ T cells from PBMC; MHC-II peptides) was “RQR YEILTPNS IPK ^ E”.

With RQRYEILTPNSIPK [compound 26] the “T1D Donor T cell response” value (CD4+ T cells from PBMC; DR3/DQ Set Peptides) was 2/4 and the “non-T1D Donor T cell response” value (CD4+ T cells from PBMC; DR3/DQ Set Peptides) was 0/2.

In the case of “RSAAVLALL [compound 175, secretory hormone eluted peptide from CHGA, pool SEC A2]”, the “IFN-γ secretion, islet-derived T cell lines” value [1, 3] is reported as “strong”, the “IL-10 secretion, islet-derived T cell lines” value [1, 3] is reported as “strong” and the “TNF-α secretion, islet-derived T cell lines” value [1, 3] is reported as “strong”. The “islet derived T cell lines response to A2-S peptide pools or to single peptides” value ([1]; donor 6551 lines, class I (A2) peptide pools or single peptides, IFNg, TNFa, IL-10 secretion) was “donor 6551 lines positive for IFNg, TNFa, IL10 secretion”, the “T1D Donor T cell response” value (CD8+ T cells from PBMC) was 1/5 and the “non-T1D Donor T cell response” value (CD8+ T cells from PBMC) was 0/4.

For SANLHGGDLVANYPY [compound 155], the “T1D Donor T cell response” value (CD4+ T cells from PBMC; HPAP-DR3 Pool Peptides) was 0/4 and the “non-T1D Donor T cell response” value (CD4+ T cells from PBMC; HPAP-DR3 Pool Peptides) was 0/4.

“SQGLVDREKGLSAEPGWQA [compound 180, secretory hormone eluted peptide from CHGA, pool SEC DR3]” was tested, and the “T1D Donor T cell response” value (CD4+ T cells from PBMC; [2]) was 0/4, the “non-T1D Donor T cell response” value (CD4+ T cells from PBMC; [2]) was 1/4 and the “IFN-γ ELISpot response of expanded CD4 T cells” value (CD4+ T cells from PBMC) was “IFN-γ responses”.

With “SSPLDNKLNVEDVDSTKN [compound 188, secretory hormone eluted peptide from SCG3, pool SEC DR3]” the “T1D Donor T cell response” value (CD4+ T cells from PBMC; [2]) was 0/4, the “non-T1D Donor T cell response” value (CD4+ T cells from PBMC; [2]) was 1/4 and the “IFN-γ ELISpot response of expanded CD4 T cells” value (CD4+ T cells from PBMC) was “IFN-γ responses”.

For “SVPHFSDEDKDPE [compound 147, non-modified native peptide, pool PTM DR3]”, the “T1D Donor T cell response” value (CD4+ T cells from PBMC; [4]) was 0/4 and the “non-T1D Donor T cell response” value (CD4+ T cells from PBMC; [4]) was 0/4.

For “SVPHFXDEDKDPE [147-1, PTM peptide, X=phosphoserine, pool PTM DR3]”, the “T1D Donor T cell response” value (CD4+ T cells from PBMC; [4]) was 0/4 and the “non-T1D Donor T cell response” value (CD4+ T cells from PBMC; [4]) was 0/4.

For TPGNALVVDPKKPFRK, the “T cell recognition … (mark E)” value (CD4+ T cells from PBMC; MHC-II peptides) was “TPGNA LVVDPKKPF RK ^ E”.

In the case of TPGNALVVDPKKPFRK [compound 13], the “T1D Donor T cell response” value (CD4+ T cells from PBMC; DR3/DQ Set Peptides) is reported as 3/4, the “non-T1D Donor T cell response” value (CD4+ T cells from PBMC; DR3/DQ Set Peptides) is reported as 1/2 and the “IFN-γ ELISpot response of expanded CD4+ T cells” value (CD4+ T cells from PBMC; control donor LSLP-074, frequencies ∼10-fold lower than for T1D-004 (Figures 5E, 5F, S5B)) is reported as “responded”.

In the case of VPGNALVVDPRRPFRK, the “T cell recognition … (mark E)” value (CD4+ T cells from PBMC; MHC-II peptides) is reported as “VPGNA LVVDPRRPF RK ^ E”.

With VPGNALVVDPRRPFRK [compound 12] the “T1D Donor T cell response” value (CD4+ T cells from PBMC; DR3/DQ Set Peptides) was 1/4 and the “non-T1D Donor T cell response” value (CD4+ T cells from PBMC; DR3/DQ Set Peptides) was 0/2.

For VPIDIDKTKVQNIHPVESA [compound 4], the “T1D Donor T cell response” value (CD4+ T cells from PBMC; DR3/DQ Set Peptides) was 0/4 and the “non-T1D Donor T cell response” value (CD4+ T cells from PBMC; DR3/DQ Set Peptides) was 0/2.

For VPIDIDKTKVQNIHPVESA [compound 152], the “T1D Donor T cell response” value (CD4+ T cells from PBMC; HPAP-DR3 Pool Peptides) was 0/4 and the “non-T1D Donor T cell response” value (CD4+ T cells from PBMC; HPAP-DR3 Pool Peptides) was 0/4.

WRPSLVPASAENVNKA was tested, and the “T cell recognition … (mark E)” value (CD4+ T cells from PBMC; MHC-II peptides) was “WRPS LVPASAENV NKA ^ E”.

WRPSLVPASAENVNKA [compound 23] was tested, and the “T1D Donor T cell response” value (CD4+ T cells from PBMC; DR3/DQ Set Peptides) was 2/4 and the “non-T1D Donor T cell response” value (CD4+ T cells from PBMC; DR3/DQ Set Peptides) was 0/2.

For YYNLEKDVKQFRRKDS [peptide 3], the “T1D Donor T cell response” value (CD4+ T cells from PBMC; DR3/DQ Set Peptides) was 0/4 and the “non-T1D Donor T cell response” value (CD4+ T cells from PBMC; DR3/DQ Set Peptides) was 0/2.

In the case of YYYIQQDTKGDYQK [peptide 7], the “T1D Donor T cell response” value (CD4+ T cells from PBMC; DR3/DQ Set Peptides) is reported as 0/4 and the “non-T1D Donor T cell response” value (CD4+ T cells from PBMC; DR3/DQ Set Peptides) is reported as 0/2.
